Test results reported in PMC7018972, “Novel and selective inactivators of Triosephosphate isomerase with anti-trematode activity” (Scientific Reports, 2020).
Read-outs that look alike come from different tables or passages of the source.

Tests used:
[1] = molecular target: Fasciola hepatica TIM (FhTIM) (Fasciola hepatica, UniProt S4UI50); assay: Inhibition of recombinant FhTIM, coupled enzyme assay; format: biochemical
Summary of the method: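 E. coli-expressed FhTIM preincubated with compound 1 h at 37 °C in 100 mM triethanolamine, 10 mM EDTA, pH 7.4, 10% DMSO. Aliquot diluted into coupled assay (1 mM glyceraldehyde-3-phosphate, 0.2 mM NADH, α-glycerol phosphate dehydrogenase, pH 7.4) with NADH decrease at 340 nm, 38 °C. Triplicate, two independent experiments.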

human (HsTIM) = molecular target: T1, human (HsTIM) (Homo sapiens, UniProt P60174); assay: Selectivity assay, inhibition of HsTIM; format: biochemical; details: read-out: inhibition against HsTIM
T1 construct: made in house; host or cells: Escherichia coli
Description: (§1) Expression and purification of proteins: FhTIM, RabbitTIM and HsTIM were expressed in Escherichia coli and purified as described in the literature[31],[37]. After purification, the enzyme, dissolved in 100 mM triethanolamine, 10 mM EDTA and 1 mM dithiothreitol (pH 8), was precipitated with ammonium sulfate (75% saturation) and stored at 4 °C. Before use, extensive dialysis against 100 mM triethanolamine/10 mM EDTA (pH 7.4) was performed. Protein concentration was determined by absorbance at 280 nm for FhTIM (ε = 33,460 M^−1cm^−1) and for RabbitTIM and HsTIM (ε = 33,460 M^−1cm^−1). Enzymatic activity was determined following the conversion of glyceraldehydes-3-phosphate into dihydroxyacetone phosphate in a coupled enzyme assay. The decrease in absorbance at 340 nm was followed in a multiplate reader VarioskanTM Flash Multimode Reader (Thermo ScientificTM, Waltham, MA, USA) at 38 °C. The reaction mixture (1 mL, pH 7.4) contained 100 mM triethanolamine, 10 mM EDTA, 0.2 mM NADH, 1 mM glyceraldehydes-3-phosphate and 0.9 units of α-glycerol phosphate dehydrogenase. The reaction was initiated by the addition of 5 ng/mL of the TIM of interest. For the inhibition studies, TIM was incubated at a concentration of 5 mg/mL in a buffer containing 100 mM triethanolamine, 10 mM EDTA, pH 7.4 and 10% of DMSO at 37 °C for 1 h. The mixture also contained the compounds, dissolved in DMSO, at the indicated concentrations. After 1 h, 10 µL were withdrawn and added to a final volume of 100 µL of the reaction mixture for the activity assay. The inhibition assay was performed in a 96-well microplate. None of the molecules tested here affected the activity of α-glycerol phosphate dehydrogenase, the enzyme used in the coupled assay. The IC50 value was taken as the concentration of drug needed to reduce the enzymatic activity to 50% by analysis using OriginLab8.5® sigmoidal regression (% of enzymatic activity vs. the logarithm of the compound concentration). The experiments were performed in triplicate in two independent experiments.

rabbit TIM = molecular target: T2, rabbit TIM (Oryctolagus cuniculus, UniProt P00939); assay: Selectivity assay, inhibition of rabbit TIM; format: biochemical; details: read-out: inhibition against rabbit TIM
T2 construct: made in house; host or cells: Escherichia coli
Description: as §1

[2] = test system: newly excysted juvenile (NEJ) F. hepatica; assay: In vitro NEJ treatment; format: cell-based, Fasciola hepatica; details: for IC50: Fasciola hepatica, NEJ
Description: F. hepatica metacercariae were acquired from DILAVE, MGAP, Uruguay. NEJ were obtained by in vitro excystement as previously described with minor modifications. Briefly, metacercariae were incubated with 1% sodium hypochlorite for 5 min at room temperature to remove the outer cyst wall and then washed exhaustively with PBS 200 U/mL Penicillin G sulfate, […] streptomycin sulfate, 500 ng/mL amphotericin B, 10 mM HEPES, counted and divided into groups of around 20 parasites that were transferred to 12 wells tissue culture plates. Parasites were maintained at 37 °C, 5% CO2 in modified Basch’s medium. At day 1, compounds were added at the indicated concentrations and 0.5% DMSO was added to control groups; each condition was tested in duplicate. NEJ behavior was monitored under a light microscope (Olympus BX41), every day each well was recorded for a minute in order to assess parasite motility and registered using the following score: 3- normally active; 2- reduced activity (sporadic movement); 1- immotile (dead)[48].

[3] = Figure 1, ranges of inhibitory activity, read-out: IC50 range
[4] = recombinant FhTIM, 1 h incubation with compound at 37 °C, read-out: IC50

Sequence of Fasciola hepatica TIM (FhTIM) (S4UI50 entry or part of it): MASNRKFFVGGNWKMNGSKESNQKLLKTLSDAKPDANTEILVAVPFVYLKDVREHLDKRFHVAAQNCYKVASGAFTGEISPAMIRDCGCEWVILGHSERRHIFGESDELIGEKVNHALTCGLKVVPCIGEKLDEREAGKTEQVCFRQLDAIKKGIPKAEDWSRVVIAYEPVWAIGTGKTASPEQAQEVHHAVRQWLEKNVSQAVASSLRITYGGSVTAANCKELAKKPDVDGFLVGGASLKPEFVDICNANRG
T2 sequence (P00939 whole entry): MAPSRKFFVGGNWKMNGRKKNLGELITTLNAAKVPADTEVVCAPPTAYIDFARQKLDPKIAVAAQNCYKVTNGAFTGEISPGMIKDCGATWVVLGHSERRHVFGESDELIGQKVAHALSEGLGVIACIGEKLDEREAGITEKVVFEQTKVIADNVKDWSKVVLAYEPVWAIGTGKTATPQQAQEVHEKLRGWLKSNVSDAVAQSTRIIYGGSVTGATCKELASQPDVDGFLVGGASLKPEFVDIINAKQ
T1 sequence (P60174 whole entry): as the sequence (P00939 whole entry) above, with K20Q, N21S, T27G, S119A counted along it

Row | IC50 ([2]; incubation time 72 h) [µM] | Structure (SMILES) | IC50 [1, 3] [µM] | IC50 ([1]; Table 1S, screening of 340 compounds in FhTIM, table head prints no unit, µM per b8/b9, read-out: IC50) [µM] | IC50 [1, 4] [µM] | inhibition at 100 µM (human (HsTIM)) [%] | inhibition at 100 µM (rabbit TIM) [%] | IC50 ([2]; incubation time 4 h) [µM] | concentration of effect against juvenile and adult forms of F. hepatica ([2]; both forms, at 48 h)
1 |  | Cc1ccc(-c2nsc(S(=O)(=O)c3ccc(C)cc3)n2)cc1 [Compound 187] | < 50 | < 25 | 4 ± 0.2 | < 20 | < 20 | 3 ± 0.5 | 
2 | > 50 | CSc1nc2cc(Cl)c(Oc3cccc(Cl)c3Cl)cc2[nH]1 [Compound 1278, triclabendazole, reference compound] | < 50 |  | 7 ± 1 | < 20 | < 20 |  | more than 50 µM
